Results on 14 molecules are retold here after PMC7397174, “4-Arylthieno[2,3-b]pyridine-2-carboxamides Are a New Class of Antiplasmodial Agents” (Molecules, 2020).

A word on the viability: it is a read-out of living cells in per cent, often relative to untreated cells. The IC50 is the concentration at which inhibition is half-maximal. The low end stands for higher potency, the high end for lower potency.

Where a name gives a salt, the structure may show the parent alone.

In one data set the target is rPfGSK-3 (Plasmodium falciparum, UniProt O77344). In words: KinaseGlo Plus assay for inhibition of PfGSK-3. Type of data set: biochemical. The note with it: 10 µM; remaining activity, calculated on DMSO controls; Table 3; read-out: rPfGSK-3 Activity at 10 µM [%].
Chain of rPfGSK-3 (O77344 entry or part of it): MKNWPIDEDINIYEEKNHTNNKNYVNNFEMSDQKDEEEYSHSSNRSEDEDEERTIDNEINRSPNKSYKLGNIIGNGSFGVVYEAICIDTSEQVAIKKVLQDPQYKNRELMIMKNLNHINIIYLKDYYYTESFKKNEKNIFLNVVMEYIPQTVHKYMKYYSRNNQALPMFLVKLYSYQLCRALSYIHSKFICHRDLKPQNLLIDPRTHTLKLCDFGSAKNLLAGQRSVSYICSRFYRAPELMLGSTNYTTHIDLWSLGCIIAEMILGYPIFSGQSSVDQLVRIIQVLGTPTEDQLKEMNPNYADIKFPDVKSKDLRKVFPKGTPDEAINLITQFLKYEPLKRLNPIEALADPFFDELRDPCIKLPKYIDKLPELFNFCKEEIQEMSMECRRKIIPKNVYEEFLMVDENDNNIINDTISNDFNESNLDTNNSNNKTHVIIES
Data set [1] concerns erythrocytic forms of P. falciparum (strain 3D7). In words: Viability screening of antiplasmodial activity (SYBR-gold DNA quantification, 96 h). Type of data set: cell-based, Plasmodium falciparum. The conditions noted are these: for activity at 0.3 µM / activity at 3 µM / IC50: Plasmodium falciparum; for activity at 0.3 µM / activity at 3 µM: 96 h, strain 3D7, calculated on DMSO controls; for activity at 0.3 µM: read-out: Parasitemia (3D7) at 0.3 µM [%]; for activity at 3 µM: read-out: Parasitemia (3D7) at 3 µM [%]; for SI (Selectivity index for 3D7 erythrocytic forms versus HEK293 cells): 3D7 versus HEK293 cells; for IC50: 3D7, strain 3D7, erythrocytic forms; for IC50 (3D7) [nM]: strain 3D7, erythrocytic forms.

The nature of the next data set: in vitro. The format is cell-based, human. The note with it: human, HEK293T Viability at 30 µM [%]. As to the method:
Cytotoxic effects of test compounds on eukaryotic cells were investigated using a HEK293T cell viability assay. First, the cell density of a HEK293T culture was determined. […] The supernatant was then aspirated and fresh culture medium was added to 200 μL into which the test compounds were previously added. All substances were previously dissolved in DMSO. […] The viability of the cells was then examined by adding PrestoBlue® Cell Viability Agent (Invitrogen, Carlsbad, CA, USA). The supernatant was removed, 10% PrestoBlue® was added in preheated PBS and the culture was incubated for 30 min at 37 °C. In cells with an active metabolism, the PrestoBlue dye is reduced, causing it to fluorescence. The fluorescence (λex = 560 nm, λem = 590 nm) was measured in an EnVision Multilable Plate Reader (Perkin Elmer, Waltham, MA, USA; integration time 0.1 sec/well).

Regarding `N#Cc1c(N)nc2sc(C(=O)Nc3cccc(Cl)c3)c(N)c2c1-c1ccc(N2CCNCC2)cc1Cl` [Compound 9q, 3,6-Diamino-4-[2-chloro-4-(piperazin-1-yl)phenyl]-N-(3-chlorophenyl)-5-cyanothieno[2,3-b]pyridine-2-carboxamide hydrochloride], the remaining activity at 10 µM at rPfGSK-3 was 72.6 ± 12.8%. For the same molecule, in data set [1], the activity at 0.3 µM is 6.5 ± 3.1% and the activity at 3 µM was 4.9 ± 3%. In the data set “in vitro”, the viability at 48 h, 30 µM was -13.1 ± 5.4%.

In the case of `N#Cc1c(N)nc2sc(C(=O)Nc3cccc(Cl)c3)c(N)c2c1-c1ccc(N2CCOCC2)cc1Cl` [Compound 9r, 3,6-Diamino-4-(2-chloro-4-morpholinophenyl)-N-(3-chlorophenyl)-5-cyanothieno[2,3-b]pyridine-2carboxamide], on rPfGSK-3, the remaining activity at 10 µM was 108 ± 16.5%. Moreover, in data set [1], the activity at 0.3 µM was 45.7 ± 17.2% and the activity at 3 µM is 2.8 ± 3.6%. Moreover, the viability at 48 h, 30 µM in the data set “in vitro” amounted to 105 ± 10%.

With `N#Cc1c(N)nc2sc(C(=O)Nc3cccc(Cl)c3)c(N)c2c1-c1ccc(N2CCCC2)cc1Cl` [Compound 9s, 3,6-Diamino-4-[2-chloro-4-(pyrrolidin-1-yl)phenyl]-N-(3-chlorophenyl)-5-cyanothieno[2,3-b]pyridine-2-carboxamide], the remaining activity at 10 µM on rPfGSK-3 is 113 ± 15.9%. In data set [1], the activity at 0.3 µM was 78.3 ± 15.2% and the activity at 3 µM is 4.8 ± 5%. Besides, in the data set “in vitro”, the viability at 48 h, 30 µM was 114 ± 40.3%.

`N#Cc1c(N)nc2sc(C(=O)Nc3ccccc3Cl)c(N)c2c1-c1ccc(N2CCCC2)cc1Cl` [Compound 9t, 3,6-Diamino-4-[2-chloro-4-(pyrrolidin-1-yl)phenyl]-N-(2-chlorophenyl)-5-cyanothieno[2,3-b]pyridine-2-carboxamide]: the remaining activity at 10 µM at rPfGSK-3 is 105 ± 6.6%. Besides, in data set [1], the activity at 0.3 µM is 68.9 ± 27.3% and the activity at 3 µM was 60.6 ± 23.7%. Further, in “in vitro”, the viability at 48 h, 30 µM was 99 ± 22.6%.

On to `N#Cc1c(N)nc2sc(C(=O)Nc3ccccc3Cl)c(N)c2c1-c1ccc(N2CCOCC2)cc1Cl` [Compound 9u, 3,6-Diamino-4-(2-chloro-4-morpholinophenyl)-N-(2-chlorophenyl)-5-cyanothieno[2,3-b]pyridine-2-carboxamide], for which, on rPfGSK-3, the remaining activity at 10 µM is 110 ± 6.2%. In data set [1], the activity at 0.3 µM is 74.5 ± 21.2% and the activity at 3 µM is 53.1 ± 29.6%. Further, the viability at 48 h, 30 µM in the data set “in vitro” was determined as 87 ± 26.7%.

Turning to `N#Cc1c(N)nc2sc(C(=O)Nc3ccc(Cl)cc3)c(N)c2c1-c1ccc(N2CCOCC2)cc1Cl` [Compound 9v, 3,6-Diamino-4-(2-chloro-4-morpholinophenyl)-N-(4-chlorophenyl)-5-cyanothieno[2,3-b]pyridine-2-carboxamide], the remaining activity at 10 µM at rPfGSK-3 is 91.8 ± 18.7%. Besides, in data set [1], the “SI (Selectivity index for 3D7 erythrocytic forms versus HEK293 cells)” value was over 20, the IC50 amounted to 1.47 µM, the activity at 0.3 µM is 51.8 ± 38.6% and the activity at 3 µM was 6.2 ± 6.1%. Also, the viability at 48 h, 30 µM in the data set “in vitro” was determined as 92.3 ± 18.8%.

`CN(CCNC(=O)OC(C)(C)C)c1ccc(-c2c(C#N)c(N)nc3sc(C(=O)Nc4cccc(Cl)c4)c(N)c23)c(Cl)c1` [Compound 9w, tert-Butyl {2-[(3-chloro-4-{3,6-diamino-2-[(3-chlorophenyl)carbamoyl]-5-cyanothieno[2,3-b]pyridin-4-yl}phenyl)(methyl)amino]ethyl}carbamate]: the remaining activity at 10 µM on rPfGSK-3 is 95.3 ± 8.6%. In addition, in data set [1], the “SI (Selectivity index for 3D7 erythrocytic forms versus HEK293 cells)” value is on record as over 30; the midpoint of inhibition, the IC50, lay at 0.86 µM; the activity at 0.3 µM is 50.1 ± 37.9%; the activity at 3 µM was 3.6 ± 2.4%. Also, in the data set “in vitro”, the viability at 48 h, 30 µM was found to be 76.1 ± 17.3%.

As for `N#Cc1c(N)nc2sc(C(=O)Nc3ccc(F)cc3)c(N)c2c1-c1ccc(N2CCOCC2)cc1Cl` [Compound 9x, 3,6-Diamino-4-(2-chloro-4-morpholinophenyl)-5-cyano-N-(4-fluorophenyl)thieno[2,3-b]pyridine-2-carboxamide], the remaining activity at 10 µM on rPfGSK-3 is 90.2 ± 8.9%. In data set [1], the activity at 0.3 µM is 59 ± 43.6% and the activity at 3 µM was 8.7 ± 6.6%. Further, the viability at 48 h, 30 µM in “in vitro” is 86.1 ± 16%.

Take `CN(CCNC(=O)OC(C)(C)C)c1ccc(-c2c(C#N)c(N)nc3sc(C(=O)Nc4ccc(Cl)cc4)c(N)c23)c(Cl)c1` [Compound 9y, tert-Butyl {2-[(3-chloro-4-{3,6-diamino-2-[(4-chlorophenyl)carbamoyl]-5-cyanothieno[2,3-b]pyridin-4-yl}phenyl)(methyl)amino]ethyl}carbamate]: the remaining activity at 10 µM on rPfGSK-3 was 110 ± 7.7%. Also, in data set [1], the “SI (Selectivity index for 3D7 erythrocytic forms versus HEK293 cells)” value is recorded as over 40, the IC50 was found to be 0.699 µM, the activity at 0.3 µM was 36.6 ± 27.4% and the activity at 3 µM is 5.5 ± 4.6%. Further, the viability at 48 h, 30 µM in “in vitro” was determined as 81.7 ± 19.6%.

As to `N#Cc1c(N)nc2sc(C(=O)Nc3ccc(Cl)cc3)c(N)c2c1-c1ccc(N2CCCC2)cc1Cl` [Compound 9z, 3,6-Diamino-4-[2-chloro-4-(pyrrolidin-1-yl)phenyl]-N-(4-chlorophenyl)-5-cyanothieno[2,3-b]pyridine-2-carboxamide], the remaining activity at 10 µM at rPfGSK-3 is 109 ± 4.9%. In data set [1], the activity at 0.3 µM was 73.1 ± 22.1% and the activity at 3 µM is 6.4 ± 5.8%. Further, in “in vitro”, the viability at 48 h, 30 µM came to 91.9 ± 13.6%.

`CC(C)(C)OC(=O)N1CCN(c2ccc(-c3c4c(nc5sc(C(=O)Nc6ccc(Cl)cc6)c(N)c35)CCC4)c(Cl)c2)CC1` [Compound 17a, tert-Butyl 4-(4-{3-amino-2-[(4-chlorophenyl)carbamoyl]-6,7-dihydro-5H-cyclopenta[b]thieno[3,2-e]-pyridin-4-yl}-3-chlorophenyl)piperazine-1-carboxylate]: the remaining activity at 10 µM at rPfGSK-3 is 102 ± 4%. Further, in data set [1], the activity at 0.3 µM was 50.5 ± 26.3% and the activity at 3 µM is 8 ± 10.2%. The viability at 48 h, 30 µM in the data set “in vitro” is 93.9 ± 6.5%.

As to `Cc1cccc(-c2c3c(nc4sc(C(=O)Nc5ccc(Cl)cc5)c(N)c24)CCC3)c1` [Compound 17f, 3-Amino-N-(4-chlorophenyl)-4-(3-methylphenyl)-6,7-dihydro-5H-cyclopenta[b]thieno[3,2-e]pyridine-2-carboxamide], the remaining activity at 10 µM at rPfGSK-3 was 103 ± 6.2%. For the same molecule, in data set [1], the “SI (Selectivity index for 3D7 erythrocytic forms versus HEK293 cells)” value was over 100, the IC50 was 0.0192 µM, the activity at 0.3 µM is 9.1 ± 16.1% and the activity at 3 µM was 1 ± 14.9%. In addition, the “IC50 (3D7) [nM]” value in data set [1] was “two-digit nanomolar range”. The viability at 48 h, 30 µM in the data set “in vitro” is 72.4 ± 23.4%.

For the molecule `Cc1nc2sc(C(=O)Nc3ccc(Cl)cc3)c(N)c2c(-c2ccccc2)c1C(=O)OC(C)(C)C` [Compound 17g, tert-Butyl 3-amino-2-[(4-chlorophenyl)carbamoyl]-6-methyl-4-phenylthieno[2,3-b]pyridine-5-carboxylate], at rPfGSK-3, the remaining activity at 10 µM was 101 ± 5.5%. Moreover, in data set [1], the “SI (Selectivity index for 3D7 erythrocytic forms versus HEK293 cells)” value is listed as over 100, it took 0.0253 µM to reach half-maximal inhibition (IC50), the activity at 0.3 µM is 11.7 ± 10.1% and the activity at 3 µM was 9.8 ± 15.1%. In data set [1], the “IC50 (3D7) [nM]” value was “two-digit nanomolar range”. Besides, the viability at 48 h, 30 µM in the data set “in vitro” was 56.9 ± 31.3%.

For `Cc1cccc(-c2c(C(=O)OC(C)(C)C)c(C)nc3sc(C(=O)Nc4ccc(Cl)cc4)c(N)c23)c1` [Compound 17h, tert-Butyl 3-amino-2-[(4-chlorophenyl)carbamoyl]-6-methyl-4-(3-methylphenyl)thieno[2,3-b]pyridine-5-carboxylate], the remaining activity at 10 µM on rPfGSK-3 is 106 ± 5.3%. In data set [1], the activity at 0.3 µM is 11.8 ± 12.3% and the activity at 3 µM was 2.3 ± 14.5%. In addition, the viability at 48 h, 30 µM in “in vitro” was under 50%.
